According to patent publication US9365541B2, “Compounds for use in the treatment of parasitic diseases” (IRBM—SCIENCE PARK S.P.A., priority 2012, dated 2016):

What was measured:
[1] = test system: Plasmodium falciparum 3D7; test: P. falciparum growth inhibition assay (Pf-LDH); format: cell-based; settings: for EC50: Plasmodium falciparum; for Selectivity Index: HDAC HeLa Cell Based IC50 (μM)/Pf-LDH EC50 (μM)
Summary of the method: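 Compounds were tested against 72 h cultures of the 3D7 strain (0.25% parasitemia, 2% hematocrit, 37° C, low-oxygen gas). Parasite growth was quantified as lactate dehydrogenase activity via NBT reduction, absorbance 650 nm, after freezing and thawing.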

human HDAC1 = biological target: T1, human HDAC1 (Homo sapiens, UniProt Q13547); test: Homo sapiens HDAC1 inhibition assay (Fluor-de-Lys, enzymatic); format: biochemical; settings: human HDAC enzymatic assay; read-out: hHDAC IC50
T1 construct: made in house; host or cells: HeLa (ATCC CCL-2), mammalian cells
T1 sequence (Q13547 whole entry): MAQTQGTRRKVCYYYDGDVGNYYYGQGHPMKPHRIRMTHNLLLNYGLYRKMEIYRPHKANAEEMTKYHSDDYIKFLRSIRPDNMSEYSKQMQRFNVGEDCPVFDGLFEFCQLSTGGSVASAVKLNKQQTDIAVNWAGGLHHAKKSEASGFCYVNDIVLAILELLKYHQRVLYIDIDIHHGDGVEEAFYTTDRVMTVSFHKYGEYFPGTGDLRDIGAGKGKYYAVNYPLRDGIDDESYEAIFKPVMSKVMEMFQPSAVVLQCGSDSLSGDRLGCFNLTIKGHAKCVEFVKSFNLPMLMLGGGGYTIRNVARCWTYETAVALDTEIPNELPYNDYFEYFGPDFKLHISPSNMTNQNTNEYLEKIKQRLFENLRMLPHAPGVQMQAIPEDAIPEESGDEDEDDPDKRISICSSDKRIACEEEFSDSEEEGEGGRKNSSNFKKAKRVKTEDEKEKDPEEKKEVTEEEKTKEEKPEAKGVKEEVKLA
Summary of the method: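 Fluorogenic deacetylation read-out: trypsin developer, supplemented with 2 μM final TSA as stop, releases fluorophore from deacetylated substrate.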

[2] = test system: HDAC1 (deacetylase activity inside HeLa cells); test: Cell based HDAC1 inhibition (HDAC HeLa Cell based assay); design: species or system human
Experimental: After result normalization using positive and negative controls, compound potency is determined by fitting the following equation: % inh=Ymin+(Ymax−Ymin)/(1+(X/IC50)^slope)) Where: • Ymin=minimum percentage inhibition • Ymax=maximum percentage inhibition • IC50=the concentration of the compound at which 50% inhibition is reached • Slope=the slope of the curve calculated at the IC50 Cell Based HDAC1 Inhibition Overview:
The aim of the assay is to evaluate the inhibition of the deacetylase activity inside the cells. To such goal a membrane permeable substrate is added to HeLa cells. After the incubation period, cells are lysed and the deacetylated substrate is evaluated using the same principles previously described for the human HDAC1 assay.
HeLa cells (HeLa, cervix adnocarcinoma, ATCC® Number: CCL-2™) frozen stock are derived from cell cultured in DMEM, glutamine, penicilline, streptomicine and 10% fetal bovine serum (FBS). Stock are frozen in 90% FBD and 10% DMSO.
b) HDAC Substrate Buffer System
Reagents of the HDAC Fluorescent Activity Assay are purchased from Enzo Life Sciences (http://www.enzolifesciences.com/BML-AK500/fluor-de-lys-hdac-fluorometric-activity-assay-kit/) and feature the Fluor-de-Lys™ Substrate/Developer System. The reagents include the proprietary fluorescent substrate as a 50 mM stock solution (KI-104), and the Developer Concentrate (KI-105). Deacetylation of the lysine residue of the Fluor-de-Lys substrate is quantified by measuring the fluorescence (ex 360 nm, em 460 nm) after addition of the proprietary developer.
TSA is provided as a 10 mM stock solution in 100% dimethylsulfoxide (DMSO).
Test compounds should be prepared in 100% DMSO and transferred to the assay by a nano volume dispenser to reach the appropriate concentration and the appropriate DMSO concentration (0.25%) in the reaction.
GIBCO Dulbecco's Mod Eagle Medium without Phenol Red (cat n° 11880) Completed with 10% FCS—fetal bovine serum—, 1% Penicillin-Streptomycin (10 mg/ml) and 1% L-Glutamine 200 mM (100×)
f) Diluted Substrate Solution
The commercial 50 mM Fluor-de-Lys substrate (KI-104) is diluted to 400 uM in Assay Buffer prior to each use.
g) Diluted Stop-Lysis-Developer Solution
The reaction is performed in 384-well microplate in a final volume of 20 μl/well+10 μl/well of Stop-Lysis-Developer Mix, as following: • seed 10000 HeLa cells/well, from the frozen aliquots, in 15 μl in assay medium and let recover overnight; • transfer compounds to the assay by nano-volume transfer machine in order to reach the desired assay concentration and a final DMSO concentration of 0.25%; • pre-incubate compounds on cells for 30 min; • start the reaction by adding 5 μl of the Diluted Substrate Solution; • stop the reaction after 4 h incubation at 37° C. 5% CO2 by adding 10 μl of Diluted Stop-Lysis-Developer Solution; • incubate 20 min at 37° C.; • after 10 min at RT measure the fluorescence at excitation 360 nm and emission 460 nm
Negative controls (0% Effect) are produced by addition of DMSO to the proper wells.
Positive controls (100% Effect) are produced by addition of 4 μM TSA to the proper wells.
After result normalization using positive and negative controls, compound potency is determined by fitting the following equation: % inh=Ymin+(Ymax−Ymin)/(1+(X/EC50)^slope)) Where: • Ymin=minimum percentage effect • Ymax=maximum percentage effect • EC50=the concentration of the compound at which 50% effect is reached • Slope=the slope of the curve calculated at the EC50 In Vitro Culture of P. falciparum Parasites

[3] = Erythrocyte, P. falciparum 3D7 infected erythrocytes, 72 h incubation, PfLDH readout

Structure (SMILES)	EC50 [1, 3]	IC50 (human HDAC1)	EC50 ([1]; P. falciparum 3D7, n=11)	Selectivity Index [1]	IC50 [2]
CNC(=O)CCCCC[C@H](NC(=O)c1ccn(C(F)F)n1)c1ncc(-c2ccc(-c3ccn(C)n3)cc2)[nH]1 [Entry 214, (S)-1-(difluoromethyl)-N-(1-(5-(4-(1-methyl-1H-pyrazol-3-yl)phenyl)-1H-imidazol-2-yl)-7-(methylamino)-7-oxoheptyl)-1H-pyrazole-3-carboxamide]	1 to 5 µM	> 5 µM	–	–	–
CNC(=O)CCCCC[C@H](NC(=O)c1cc(C)nn1C)c1ncc(-c2ccc(-c3ccn(C)n3)cc2)[nH]1 [Entry 215, (S)-1,3-dimethyl-N-(1-(5-(4-(1-methyl-1H-pyrazol-3-yl)phenyl)-1H-imidazol-2-yl)-7-(methylamino)-7-oxoheptyl)-1H-pyrazole-5-carboxamide]	1 to 5 µM	> 5 µM	–	–	–
CNC(=O)CCCCC[C@H](NC(=O)c1cc(C)n(C)n1)c1ncc(-c2ccc(-c3ccn(C)n3)cc2)[nH]1 [Entry 216, (S)-1,5-dimethyl-N-(1-(5-(4-(1-methyl-1H-pyrazol-3-yl)phenyl)-1H-imidazol-2-yl)-7-(methylamino)-7-oxoheptyl)-1H-pyrazole-3-carboxamide]	1 to 5 µM	> 5 µM	–	–	–
CNC(=O)CCCCC[C@H](NC(=O)c1cc(C(C)(C)C)nn1C)c1ncc(-c2ccc(-c3ccn(C)n3)cc2)[nH]1 [Entry 217, (S)-3-(tert-butyl)-1-methyl-N-(1-(5-(4-(1-methyl-1H-pyrazol-3-yl)phenyl)-1H-imidazol-2-yl)-7-(methylamino)-7-oxoheptyl)-1H-pyrazole-5-carboxamide]	1 to 5 µM	1 to 5 µM	–	–	–
Cn1ccc(-c2ccc(-c3cnc([C@H](CCCCCC(N)=O)NC(=O)c4cncs4)[nH]3)cc2)n1 [Entry 218, (S)-N-(7-amino-1-(5-(4-(1-methyl-1H-pyrazol-3-yl)phenyl)-1H-imidazol-2-yl)-7-oxoheptyl)thiazole-5-carboxamide]	< 1 µM	< 1 µM	–	–	–
CNC(=O)CCCCC[C@H](NC(=O)c1cncs1)c1ncc(-c2ccc3ccnc(OC)c3c2)[nH]1 [Entry 219, (S)-N-(1-(5-(1-methoxyisoquinolin-7-yl)-1H-imidazol-2-yl)-7-(methylamino)-7-oxoheptyl)thiazole-5-carboxamide]	1 to 5 µM	1 to 5 µM	–	–	–
CNC(=O)CCCCC[C@H](NS(=O)(=O)c1ccc(C#N)cc1)c1ncc(-c2cc3ccccc3nc2OC)[nH]1 [Entry 220]	< 1 µM	< 1 µM	–	–	–
CNC(=O)CCCCC[C@H](NC(=O)c1cncs1)c1ncc(-c2ccc(-c3ccn[nH]3)cc2)[nH]1 [Entry 221, (S)-N-(1-(5-(4-(1H-pyrazol-5-yl)phenyl)-1H-imidazol-2-yl)-7-(methylamino)-7-oxoheptyl)thiazole-5-carboxamide]	< 1 µM	1 to 5 µM	–	–	–
CNC(=O)CCCCC[C@H](NC(=O)c1cncs1)c1ncc(-c2ccc(-c3ccn(C)n3)cc2)o1 [Entry 222, (S)-N-(1-(5-(4-(1-methyl-1H-pyrazol-3-yl)phenyl)oxazol-2-yl)-7-(methylamino)-7-oxoheptyl)thiazole-5-carboxamide]	1 to 5 µM	> 5 µM	–	–	–
CNC(=O)CCCCC[C@H](NC(=O)c1cnn(C(C)C)c1)c1ncc(-c2ccc(-c3ccn(C)n3)cc2)o1 [Entry 223, (S)-1-isopropyl-N-(1-(5-(4-(1-methyl-1H-pyrazol-3-yl)phenyl)oxazol-2-yl)-7-(methylamino)-7-oxoheptyl)-1H-pyrazole-4-carboxamide]	1 to 5 µM	> 5 µM	–	–	–
CNC(=O)CCCCC[C@H](NC(=O)c1cnn(C)c1)c1ncc(-c2ccc(-c3ccn(C)n3)cc2)o1 [Entry 224, (S)-1-methyl-N-(1-(5-(4-(1-methyl-1H-pyrazol-3-yl)phenyl)oxazol-2-yl)-7-(methylamino)-7-oxoheptyl)-1H-pyrazole-4-carboxamide]	1 to 5 µM	> 5 µM	–	–	–
CNC(=O)CCCCC[C@H](NC(=O)c1cnc(C)s1)c1ncc(-c2ccc(-c3ccn(C)n3)cc2)o1 [Entry 225, (S)-2-methyl-N-(1-(5-(4-(1-methyl-1H-pyrazol-3-yl)phenyl)oxazol-2-yl)-7-(methylamino)-7-oxoheptyl)thiazole-5-carboxamide]	1 to 5 µM	> 5 µM	–	–	–
CNC(=O)CCCCC[C@H](NC(=O)c1cnsc1)c1ncc(-c2ccc(-c3ccn(C)n3)cc2)o1 [Entry 226, (S)-N-(1-(5-(4-(1-methyl-1H-pyrazol-3-yl)phenyl)oxazol-2-yl)-7-(methylamino)-7-oxoheptyl)isothiazole-4-carboxamide]	1 to 5 µM	> 5 µM	–	–	–
CNC(=O)CCCCC[C@H](NC(=O)C12CCN(CC1)CC2)c1ncc(-c2ccc3ccccc3c2)[nH]1 [compound 126, (S)-N-(7-(methylamino)-1-(5-(naphthalen-2-yl)-1H-imidazol-2-yl)-7-oxo-heptyl)quinuclidine-4-carboxamide]	< 1 µM	< 1 µM	0.293 µM	–	–
CNC(=O)CCCCC[C@H](NC(=O)c1cnn(C(C)C)c1)c1ncc(-c2ccc3cc(OC)ncc3c2)[nH]1 [compound 227, (S)-1-isopropyl-N-(1-(5-(3-methoxyisoquinolin-7-yl)-1H-imidazol-2-yl)-7-(methylamino)-7-oxoheptyl)-1H-pyrazole-4-carboxamide]	< 1 µM	< 1 µM	–	23.5	1 to 5 µM
CNC(=O)CCCCC[C@H](NC(=O)c1cncs1)c1ncc(-c2ccc(-c3cnn(C)c3)cc2)[nH]1 [compound 228, (S)-N-(1-(5-(4-(1-methyl-1H-pyrazol-4-yl)phenyl)-1H-imidazol-2-yl)-7-(methylamino)-7-oxoheptyl)thiazole-5-carboxamide]	1 to 5 µM	> 5 µM	–	6.7	> 5 µM
CNC(=O)CCCCC[C@H](NC(=O)c1cncs1)c1ncc(-c2ccc(-c3ccnn3C)cc2)[nH]1 [compound 229, (S)-N-(1-(5-(4-(1-methyl-1H-pyrazol-5-yl)phenyl)-1H-imidazol-2-yl)-7-(methylamino)-7-oxoheptyl)thiazole-5-carboxamide]	1 to 5 µM	> 5 µM	–	5.6	> 5 µM
CNC(=O)CCCCC[C@H](NC(=O)c1cncs1)c1ncc(-c2ccc(-c3cncs3)cc2)[nH]1 [compound 230, (S)-N-(7-(methylamino)-7-oxo-1-(5-(4-(thiazol-5-yl)phenyl)-1H-imidazol-2-yl)heptyl)thiazole-5-carboxamide]	1 to 5 µM	1 to 5 µM	–	3.6	> 5 µM
CNC(=O)CCCCC[C@H](NC(=O)c1cncs1)c1ncc(-c2ccc(-c3nccs3)cc2)[nH]1 [compound 231, (S)-N-(7-(methylamino)-7-oxo-1-(5-(4-(thiazol-2-yl)phenyl)-1H-imidazol-2-yl)heptyl)thiazole-5-carboxamide]	< 1 µM	1 to 5 µM	–	10.6	> 5 µM
CNC(=O)CCCCC[C@H](NC(=O)c1cncs1)c1ncc(-c2ccc(-c3cscn3)cc2)[nH]1 [compound 232, (S)-N-(7-(methylamino)-7-oxo-1-(5-(4-(thiazol-4-yl)phenyl)-1H-imidazol-2-yl)heptyl)thiazole-5-carboxamide]	< 1 µM	1 to 5 µM	–	14.2	> 5 µM
